Experimental findings from ChEMBL document CHEMBL1133262, “Studies on the novel anti-staphyloccal compound nematophin” (2000) are described below.

One test has as its system Bacillus subtilis. Description: Minimum inhibitory concentration against Bacillus subtilis. The format is functional.
Test [1] relates to Staphylococcus aureus. Description: Activity against methicillin sensitive organism Staphylococcus aureus 853 in presence of serum. The format is functional, organism-based.
The subject of test [2] is Staphylococcus aureus. Put plainly: Minimum inhibitory concentration against methicillin resistant organism Staphylococcus aureus COL. In kind it is functional.
For test [3], the system named is Staphylococcus aureus. Put plainly: Minimum inhibitory concentration against methicillin sensitive organism Staphylococcus aureus 853. In kind it is functional.

The structures appear in SMILES notation. ≈ marks a conversion by molar mass, not a printed value. Calls of active or inactive are those of the source. The rule behind the calls is not given here.

For orientation: MIC means the lowest concentration found to suppress growth. In the case of `CCC(C)C(=O)C(=O)NCCn1c(-c2ccccc2)nc2ccccc21` (stereo unspecified), the results for the MIC against Bacillus subtilis, in the test with Staphylococcus aureus [2] and with Staphylococcus aureus [3] were above 32 µg/mL, 16 µg/mL (≈ 45.8 µM) and 8 µg/mL (≈ 22.9 µM), respectively. The MIC entry in the test on Staphylococcus aureus [1] was “inactive”.

For `CCC(C)C(=O)C(=O)NCCc1cn(Cc2ccccc2)c2ccccc12` (stereo unspecified), the MIC against Bacillus subtilis was above 32 µg/mL; with Staphylococcus aureus [2], above 32 µg/mL; against Staphylococcus aureus [3] it was 2 µg/mL (≈ 5.52 µM). Moreover, the MIC result with Staphylococcus aureus [1] was “inactive”.

`CCC(C)C(=O)C(=O)NCCn1c(-c2ccccc2)[n+](C)c2ccccc21.[I-]` (stereo unspecified): the MIC with Bacillus subtilis and in the test with Staphylococcus aureus [3] was above 32 µg/mL each time. In the test with Staphylococcus aureus [1], the MIC result was “inactive”.

In the case of `CCC(C)C(=O)C(=O)NCCc1c(-c2cccnc2)[nH]c2ccccc12` (stereo unspecified), the MIC is above 32 µg/mL in the test on Bacillus subtilis, 4 µg/mL (≈ 11.4 µM) in the test on Staphylococcus aureus [2] and 0.5 µg/mL (≈ 1.43 µM) with Staphylococcus aureus [3]. The MIC entry with Staphylococcus aureus [1] is “inactive”.

For `CCC(C)C(=O)C(=O)NCCn1cnc2ccccc21` (stereo unspecified), the MIC against Bacillus subtilis and against Staphylococcus aureus [3] was above 32 µg/mL in each case. The MIC entry with Staphylococcus aureus [1] was “inactive”.

On to `O=C1c2ccccc2C(=O)N1CCc1c(-c2ccccc2)[nH]c2ccccc12`, for which the MIC result in the test with Staphylococcus aureus [1] was “inactive”.

As to `O=C1c2ccccc2C(=O)N1CCc1c[nH]c2ccccc12`, the MIC result in the test on Staphylococcus aureus [1] is “inactive”.

`CCC(C)C(=O)C(=O)NCCc1c[nH]c2ccccc12` (stereo unspecified): the MIC with Bacillus subtilis was above 32 µg/mL; with Staphylococcus aureus [2] it was 16 µg/mL (≈ 58.7 µM); in the test on Staphylococcus aureus [3] it was 2 µg/mL (≈ 7.34 µM). Further, the MIC result in the test with Staphylococcus aureus [1] was “inactive”.

For `O=C1c2ccccc2C(=O)N1CCc1c(-c2cccnc2)[nH]c2ccccc12`, the MIC result in the test on Staphylococcus aureus [1] was “inactive”.

Consider `CCC(C)C(=O)C(=O)NCCc1c(-c2ccc[n+](CC(N)=O)c2)[nH]c2ccccc12.[I-]` (stereo unspecified), for which the MIC against Bacillus subtilis and against Staphylococcus aureus [3] was above 32 µg/mL throughout. Besides, the MIC result in the test with Staphylococcus aureus [1] is “inactive”.

On to `O=C1c2ccccc2C(=O)N1CCn1cnc2ccccc21`, for which the MIC result in the test on Staphylococcus aureus [1] was “inactive”.

On to `CCC(C)C(=O)C(=O)NCCc1c(-c2ccc[n+](C)c2)[nH]c2ccccc12.[I-]` (stereo unspecified), for which the MIC in the test on Bacillus subtilis and with Staphylococcus aureus [3] was above 32 µg/mL each time. In addition, the MIC entry in the test on Staphylococcus aureus [1] was “inactive”.

Regarding `O=C1c2ccccc2C(=O)N1CCn1c(-c2ccccc2)nc2ccccc21`, the MIC result with Staphylococcus aureus [1] was “inactive”.

On to `O=[N+]([O-])c1ccccc1F`, for which the MIC entry in the test on Staphylococcus aureus [1] was “inactive”.

With `CCC(C)C(=O)C(=O)NCCc1c(-c2ccccc2)[nH]c2ccccc12` (stereo unspecified), the values for the MIC against Bacillus subtilis, in the test with Staphylococcus aureus [2] and against Staphylococcus aureus [3] were 8 µg/mL (≈ 23 µM), 0.06 µg/mL (≈ 0.172 µM) and below 0.03 µg/mL, respectively. Besides, the MIC entry with Staphylococcus aureus [1] is “inactive”.

In the case of `CCC(C)C(=O)C(=O)NCCn1c[n+](C)c2ccccc21.[I-]` (stereo unspecified), the MIC in the test with Bacillus subtilis and with Staphylococcus aureus [3] was above 32 µg/mL each time. The MIC result in the test with Staphylococcus aureus [1] was “inactive”.
